The assay concerns the target T1, ABL2 (ABL-related gene, ARG) (Homo sapiens, UniProt P42684).
T1 sequence (P42684 279-546): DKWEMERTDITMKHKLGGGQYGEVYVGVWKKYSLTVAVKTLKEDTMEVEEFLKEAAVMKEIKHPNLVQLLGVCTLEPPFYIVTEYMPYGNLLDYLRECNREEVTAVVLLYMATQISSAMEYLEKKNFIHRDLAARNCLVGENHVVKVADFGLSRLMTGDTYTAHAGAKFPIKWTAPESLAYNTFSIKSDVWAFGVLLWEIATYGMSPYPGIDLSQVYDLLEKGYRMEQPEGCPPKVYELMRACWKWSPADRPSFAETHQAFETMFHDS
Briefly: cocrystal structure. Type of assay: binding.

`Nc1nc(Nc2ccc(S(N)(=O)=O)cc2)nn1C(=S)Nc1c(F)cccc1F` [compound 2, 5-amino-3-((4-(aminosulfonyl)phenyl)amino)-N-(2,6-difluorophenyl)-1H-1,2,4-triazole-1-carbothioamide]: the cocrystal structure entry was “The ligand is bound to the protein by hydrogen bonds to the backbone carbonyls of residues Glu362 and Met364”.

The values above are taken from PMC3075623 (2011).
